What was measured:
[1] = system: 5-HT receptor 3A (HTR3A), transcript variant 1 mRNA; assay: Microarray gene expression of HTR3A transcript variant 1 mRNA in CD3+ lymphocytes treated 4 h; format: cell-based, human; conditions: probe ILMN_1681492, HTR3A transcript variant 1, low dose naltrexone 10 nM
Procedure: (§1) CD3+ lymphocytes were isolated from the blood of haematologically normal volunteers. Cells placed into […] flasks at a concentration of 1×10^6/ml, and left to equilibrate in an incubator with a humidified atmosphere and 5% CO2 in air at 37° C. […] RNA extraction was performed using Trizol according to standard procedures, before being processed for microarray analysis according to the standard methodologies. Briefly, equal amounts of biotinylated cRNA was hybridised to the Illumina human HT12-v3 arrays for 18 h and subsequently processed according to manufacturer's instructions before scanning on an Illumina BeadArray Reader. The image data were processed using default values in GenomeStudio v2009.1 with imputation of missing data, before loading onto GeneSpring v9.0 for data normalisation and filtering. Data analyses were performed using Excel software, and the ratio of gene expression signals in treated vs. untreated calculated.

[2] = system: 5-HT receptor 3A (HTR3A), transcript variant 2 mRNA; assay: Microarray gene expression of HTR3A transcript variant 2 mRNA in CD3+ lymphocytes treated 4 h; format: cell-based, human
Procedure: as §1

O=C1CC[C@@]2(O)[C@H]3Cc4ccc(O)c5c4[C@@]2(CCN3CC2CC2)[C@H]1O5 [NTX, morphinan-6-one, 17-(cyclopropylmethyl)-4,5-epoxy-3,14-dihydroxy-(5a)]
gene expression signal LDN [1]: 94.00 | levels of mRNA for one or more of 5-HT3 receptor proteins ([2]; both high dose (10 uM) and low dose (10 nM) naltrexone, result in words): selectively increase the levels of mRNA | gene expression signal LDN ([2]; probe ILMN_2371079, HTR3A transcript variant 2, low dose naltrexone 10 nM, 4 h, CD3+ lymphocytes): 124.70 | gene expression signal NTX ([2]; probe ILMN_2371079, HTR3A transcript variant 2, naltrexone 10 uM, 4 h, CD3+ lymphocytes): 151.75

Source: patent publication US20240285612A1, “COMPOSITIONS COMPRISING AN AGONIST OF 5-HYDROXYTRYPTAMINE (5-HT) RECEPTOR SUBTYPE 3” (LDN Pharma Limited, priority 2021, published 2024)
